Measurements: patent US9902728B2, “Pyrrolo and pyrazolopyrimidines as ubiquitin-specific protease 7 inhibitors” (Forma Therapeutics, Inc., priority 2014, dated 2018)
Read-outs that look alike come from different tables or passages of the source.

Biological target: T1, USP7 (Homo sapiens, UniProt Q93009)
T1 construct: USP7, construct USP7 (208-1102) 6*His, Viva Biotech; 6xHis (C); purchased Viva Biotech
Experiment: USP7 Assay A (Ubitquin-Rhodamine 110 Assay)
Format: biochemical
How it was run: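 Ub-Rh110 cleavage in 20 mM Tris-HCl pH 8.0 with 1 mM GSH, 0.03% BGG, 0.01% Triton X-100; compound preincubated with enzyme 30 min before substrate.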

[1] = USP7 activity in USP7 assay A and B (table does not say which assay per compound), read-out: USP7_IC50
[2] = USP7 assay A and B (table does not say which assay per compound), read-out: USP7_IC50

T1 sequence (Q93009 208-1102): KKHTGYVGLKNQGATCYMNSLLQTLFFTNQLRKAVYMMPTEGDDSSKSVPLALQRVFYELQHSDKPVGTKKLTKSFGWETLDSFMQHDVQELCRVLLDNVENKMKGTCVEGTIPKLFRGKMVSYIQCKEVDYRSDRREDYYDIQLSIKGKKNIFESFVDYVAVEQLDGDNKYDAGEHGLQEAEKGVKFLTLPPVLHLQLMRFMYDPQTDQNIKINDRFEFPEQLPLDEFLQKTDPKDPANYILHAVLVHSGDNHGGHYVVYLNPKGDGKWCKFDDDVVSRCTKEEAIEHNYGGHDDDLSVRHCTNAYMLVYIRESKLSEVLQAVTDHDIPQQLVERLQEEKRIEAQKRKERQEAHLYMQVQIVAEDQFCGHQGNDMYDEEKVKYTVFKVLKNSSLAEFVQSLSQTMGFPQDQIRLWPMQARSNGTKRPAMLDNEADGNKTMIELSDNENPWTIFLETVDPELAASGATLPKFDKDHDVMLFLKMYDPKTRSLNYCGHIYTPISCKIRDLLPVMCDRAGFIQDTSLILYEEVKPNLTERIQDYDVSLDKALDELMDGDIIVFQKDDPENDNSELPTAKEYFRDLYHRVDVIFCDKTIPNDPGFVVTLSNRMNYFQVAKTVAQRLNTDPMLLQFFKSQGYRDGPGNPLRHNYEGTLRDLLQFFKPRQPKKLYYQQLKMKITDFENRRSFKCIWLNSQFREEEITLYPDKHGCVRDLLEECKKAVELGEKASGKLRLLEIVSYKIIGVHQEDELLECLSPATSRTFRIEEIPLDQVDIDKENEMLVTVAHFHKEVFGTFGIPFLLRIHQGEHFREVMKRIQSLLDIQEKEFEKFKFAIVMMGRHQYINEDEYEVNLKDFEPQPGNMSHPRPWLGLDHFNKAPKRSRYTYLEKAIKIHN

Row | SMILES | IC50 [1] | IC50 [2] | other results
1 | C[C@]1(O)CCN(c2ccc(-n3ncc4c(=O)n(CC5(O)CCN(C(=O)C[C@H](C(F)F)n6cccn6)CC5)cnc43)cc2)C1 [Compound I-833] | < 0.2 µM | – | –
2 | CC(=O)N1CCC(O)(Cn2cnc3c(cnn3-c3ccc(Cl)cc3)c2=O)CC1 [Compound I-1625] | > 10 µM | – | –
3 | CC(C)c1ccc(-n2ncc3c(=O)n(CC4(O)CCN(C(=O)C5CC5)CC4)cnc32)cc1 [Compound I-27] | – | 1 to 10 µM | –
4 | CC1(COc2ccc(-n3ncc4c(=O)n(CC5(O)CCN(C(=O)C6(C)CC6)CC5)cnc43)cc2)COC1 [Compound I-1118] | < 0.2 µM | – | –
5 | O=C(Nc1cccnc1)N1CCC(O)(Cn2cnc3c(cnn3-c3ccc(F)cc3)c2=O)CC1 [Compound I-1708] | – | 1 to 10 µM | –
6 | Cc1nc(-c2ccc(-n3ncc4c(=O)n(CC5(O)CCN(C(=O)c6ccc(F)cc6)CC5)cnc43)cc2)c[nH]1 [Compound I-983] | 1 to 10 µM | – | –
7 | O=C(c1cccn1Cc1ccccc1F)N1CCC(O)(Cn2cnc3c(cnn3-c3ccc(F)cc3)c2=O)CC1 [Compound I-561] | 0.2 to 1 µM | – | –
8 | O=C(C1CCC(Nc2cccnc2F)CC1)N1CCC(O)(Cn2cnc3c(cnn3-c3ccccc3)c2=O)CC1 (single isomer, unassigned) [Compounds I-1039] | 0.2 to 1 µM | – | –
9 | CN(C)C1CCN(C(=O)c2ccc(-n3ncc4c(=O)n(CC5(O)CCN(C(=O)C6CC6)CC5)cnc43)cc2)CC1 [Compound I-1496] | – | 1 to 10 µM | –
10 | Cc1cc(C(=O)N2CCC(O)(Cn3cnc4c(cnn4-c4ccccc4)c3=O)CC2)ccc1Cl [Compound I-212] | – | 0.2 to 1 µM | –
11 | O=C(c1cnc(C2CC2)o1)N1CCC(O)(Cn2cnc3c(cnn3-c3ccc(C4CCC4)cc3)c2=O)CC1 [Compound I-847] | 0.2 to 1 µM | – | –
12 | O=C(C[C@H](C(F)F)n1ccc(F)n1)N1CCC(O)(Cn2cnc3c(cnn3-c3ccc(C(F)(F)F)cc3)c2=O)CC1 [Compound I-1036] | < 0.2 µM | – | –
13 | CN1CCN(c2cccc(-n3ncc4c(=O)n(CC5(O)CCN(C(=O)C6(C)CC6)CC5)cnc43)c2)CC1 [Compound I-1690] | < 0.2 µM | – | –
14 | C[C@@H](CC(=O)N1CCC(O)(Cn2cnc3c(cnn3-c3ccc(N4CC[C@@](C)(O)C4)cc3)c2=O)CC1)n1cccn1 [Compound I-1052] | 0.2 to 1 µM | – | –
15 | COc1ccc(C(=O)N2CCC(O)(C(C)n3cnc4c(cnn4-c4ccc(F)cc4)c3=O)CC2)cc1 (single isomer, unassigned) [Compound I-615] | – | 0.2 to 1 µM | –
16 | O=C(c1ccc(F)cc1)N1CCC(O)(Cn2cnc3c(cnn3-c3ccc(F)c(N4CCNCC4)c3)c2=O)CC1 [Compound I-824] | – | 0.2 to 1 µM | –
17 | CN1CCN(c2cccc(-n3ncc4c(=O)n(CC5(O)CCN(C(=O)C[C@H](C(F)F)n6cccn6)CC5)cnc43)c2)CC1 [Compound I-829] | < 0.2 µM | – | –
18 | CC(CC(=O)N1CCC(O)(Cn2cnc3c(cnn3-c3ccc(-c4ccccc4)cc3)c2=O)CC1)n1cccn1 (stereo not drawn) [Compound I-648] | – | 1 to 10 µM | –
19 | O=C(c1ccc(-n2cnnn2)cc1)N1CCC(O)(Cn2cnc3c(cnn3-c3ccc(Cl)cc3)c2=O)CC1 [Compound I-1087] | 0.2 to 1 µM | – | –
20 | CC1(C(=O)N2CCC(O)(Cn3cnc4c(cnn4-c4cccc(N5CC(F)C5)c4)c3=O)CC2)CC1 [Compound I-1680] | 0.2 to 1 µM | – | –
21 | O=C(C1CC1)N1CCC(O)(Cn2cnc3c(cnn3-c3cccc(NCc4ccccc4)c3)c2=O)CC1 [Compound I-1155] | – | 0.2 to 1 µM | –

Row | SMILES | IC50 [1] | IC50 [2] | other results
22 | O=C(c1ccc(-c2ccc(-n3ncc4c(=O)n(CC5(O)CCN(C(=O)C6CC6)CC5)cnc43)cc2)cc1)N1CCCC1 [Compound I-333] | – | 1 to 10 µM | –
23 | CC1(C(=O)N2CCC(O)(Cn3cnc4c(cnn4-c4ccc(OCC5CC(F)(F)C5)cc4)c3=O)CC2)CC1 [Compound I-1133] | < 0.2 µM | – | –
24 | Cc1ccc(C(=O)N2CCC(O)(Cn3cnc4c(cnn4-c4ccccc4)c3=O)CC2)cc1C [Compound I-200] | – | 1 to 10 µM | –
25 | O=C(C1CC1)N1CCC(O)(Cn2cnc3c(cnn3-c3ccc(-n4cc(OCCO)cn4)cc3)c2=O)CC1 [Compound I-977] | 1 to 10 µM | – | –
26 | CN1CC[C@H](Oc2ccc(-c3ccc(-n4ncc5c(=O)n(CC6(O)CCN(C(=O)C7CC7)CC6)cnc54)cc3)cc2)C1 [Compound I-680] | 0.2 to 1 µM | – | –
27 | CC(C)n1ncc2c(=O)n(CC3(O)CCN(C(=O)C[C@@H](C)c4ccccc4)CC3)cnc21 [Compound I-61] | – | – | IC50 (USP7 assay A and B (table does not say which assay per compound), Ubiquitin-Rhodamine 110 substrate, read-out: USP7_IC50): 0.2 to 1 µM
28 | Cc1ccc(-c2ccc(-n3ncc4c(=O)n(CC5(O)CCN(C(=O)C6CC6)CC5)cnc43)cc2)nc1 [Compound I-1726] | 0.2 to 1 µM | – | –
29 | CN1CCN(c2cccc(-n3ncc4c(=O)n(CC5(O)CCN(C(=O)C[C@@H](C(F)F)n6cccn6)CC5)cnc43)c2)CC1 [Compound I-830] | 0.2 to 1 µM | – | –
30 | O=C(C1CC1)N1CCC(O)(Cn2cnc3c(cnn3-c3cccc(N4CCC(c5ccccc5)CC4)c3)c2=O)CC1 [Compound I-1205] | – | 1 to 10 µM | –
31 | CC1(O)CCN(c2ccc(-n3ncc4c(=O)n(CC5(O)CCN(C(=O)c6ccc(F)cc6)CC5)cnc43)cc2)C1 (stereo not drawn) [Compound I-1168] | 0.2 to 1 µM | – | –
32 | O=C(C1CCC(Oc2cnccn2)CC1)N1CCC(O)(Cn2cnc3c(cnn3-c3ccc(F)cc3)c2=O)CC1 (stereo not drawn) [Compound I-1021] | 0.2 to 1 µM | – | –
33 | O=C(C1CC1)N1CCC(O)(Cn2cnc3c(cnn3-c3ccc(-c4ccccc4)c(N4CCNCC4)c3)c2=O)CC1 [Compound I-698] | – | 0.2 to 1 µM | –
34 | Cn1cc(C2CCC(C(=O)N3CCC(O)(Cn4cnc5c(cnn5-c5ccc(F)cc5)c4=O)CC3)CC2)cn1 (stereo not drawn) [Compound I-728] | 0.2 to 1 µM | – | –
35 | CC(=O)N1CCN(c2ccc(-n3ncc4c(=O)n(CC5(O)CCN(C(=O)C6CC6)CC5)cnc43)cc2)CC1 [Compound I-1211] | – | 1 to 10 µM | –
36 | CC1(O)CCN(c2cc(-n3ncc4c(=O)n(CC5(O)CCN(C(=O)C6CC6)CC5)cnc43)ccc2F)C1 (stereo not drawn) [Compound I-636] | – | 0.2 to 1 µM | –
37 | Cc1nnc(-c2ccc(-n3ncc4c(=O)n(CC5(O)CCN(C(=O)c6ccc(F)cc6)CC5)cnc43)cc2)o1 [Compound I-712] | 1 to 10 µM | – | –
38 | O=C(c1ccc(OC(F)F)cc1)N1CCC(O)(Cn2cnc3c(cnn3-c3ccccc3)c2=O)CC1 [Compound I-274] | – | 1 to 10 µM | –
39 | CN1C2CCC1CN(c1cccc(-n3ncc4c(=O)n(CC5(O)CCN(C(=O)C6(C)CC6)CC5)cnc43)c1)C2 [Compound I-1644] | – | – | IC50 (USP7_IC50, USP7 activity in USP7 assay A and B (table does not say which assay per compound)): < 0.2 µM
40 | O=C(C[C@@H](C(F)F)n1cccn1)N1CCC(O)(Cn2cnc3c(cnn3-c3ccc(Cl)cc3)c2=O)CC1 [Compound I-1132] | 0.2 to 1 µM | – | –
41 | O=C(C1CC1)N1CCC(O)(Cn2cnc3c(cnn3-c3cccc(N4CCCCC4)c3)c2=O)CC1 [Compound I-1202] | – | 1 to 10 µM | –
42 | O=C(C1CCC(Oc2ccccn2)CC1)N1CCC(O)(Cn2cnc3c(cnn3-c3ccc(F)cc3)c2=O)CC1 (stereo not drawn) [Compound I-546] | 0.2 to 1 µM | – | –

Row | SMILES | IC50 [1] | IC50 [2] | other results
43 | O=C(c1ccc(F)cc1)N1CCC(O)(Cn2cnc3c(cnn3-c3ccc(OCC4(F)CCOCC4)cc3)c2=O)CC1 [Compound I-693] | 0.2 to 1 µM | – | –
44 | O=C(C1CC1)N1CCC(O)(Cn2cnc3c(ccn3-c3cccc(CN4CCCCC4)c3)c2=O)CC1 [Compound I-1009] | 1 to 10 µM | – | –
45 | O=C(C1CC1)N1CCC(O)(Cn2cnc3c(cnn3-c3ccc(N4CCC5(CC4)CC(O)C5)cc3)c2=O)CC1 [Compound I-1739] | 1 to 10 µM | – | –
46 | CN(C)CCNC(=O)c1ccc(-n2ncc3c(=O)n(CC4(O)CCN(C(=O)C5CC5)CC4)cnc32)cc1 [Compound I-1487] | – | 0.2 to 1 µM | –
47 | O=C(c1ccc(-n2ccnn2)cc1)N1CCC(O)(Cn2cnc3c(cnn3-c3ccc(F)cc3)c2=O)CC1 [Compound I-1535] | – | 0.2 to 1 µM | –
48 | Cc1cnn(-c2ccc(-n3ncc4c(=O)n(CC5(O)CCN(C(=O)c6ccc(F)cc6)CC5)cnc43)cc2)c1 [Compound I-1623] | 1 to 10 µM | – | –
49 | CN(C)C(=O)N1CCC(O)(Cn2cnc3c(cnn3-c3ccc(OCC4CCC4)cc3)c2=O)CC1 [Compound I-1295] | – | 1 to 10 µM | –
50 | C=CC(=O)N1CCC1C(=O)N1CCC(O)(Cn2cnc3c(cnn3-c3ccc(N4CCN(C)CC4)cc3)c2=O)CC1 (stereo not drawn) [Compound I-832] | < 0.2 µM | – | –
51 | O=C(c1ocnc1Cc1ccccc1)N1CCC(O)(Cn2cnc3c(cnn3-c3ccccc3)c2=O)CC1 [Compound I-1108] | > 10 µM | – | –
52 | CC(CC(=O)N1CCC(O)(Cn2cnc3c(cnn3-c3ccc(F)cc3)c2=O)CC1)n1cccn1 (stereo not drawn) [Compound I-513] | – | 0.2 to 1 µM | –
53 | C[C@H](CC(=O)N1CCC(O)(Cn2cnc3c(cnn3-c3ccccc3)c2=O)CC1)c1ccccc1 [Compound I-72] | – | < 0.2 µM | –
54 | CN(C)C(=O)Nc1ccc(-n2ncc3c(=O)n(CC4(O)CCN(C(=O)c5ccc(F)cc5)CC4)cnc32)cc1 [Compound I-1576] | – | 1 to 10 µM | –
55 | CN(C)C1CCN(C(=O)c2cccc(-n3ncc4c(=O)n(CC5(O)CCN(C(=O)C6CC6)CC5)cnc43)c2)CC1 [Compound I-1468] | – | 1 to 10 µM | –
56 | COc1ccc(C(=O)N2CCC(O)(Cn3cnc4c(cnn4-c4ccccc4)c3=O)CC2)cc1 [Compound I-157] | – | 0.2 to 1 µM | –
57 | Cn1nccc1OC1CCC(C(=O)N2CCC(O)(Cn3cnc4c(cnn4-c4ccc(F)cc4)c3=O)CC2)CC1 (stereo not drawn) [Compound I-1114] | 1 to 10 µM | – | –
58 | CN1CCN(c2ccc(-n3ncc4c(=O)n(CC5(O)CCN(C(=O)C6(C)CC6)CC5)cnc43)cc2)CC1C(F)F (stereo not drawn) [Compound I-1693] | 0.2 to 1 µM | – | –
59 | O=C(c1ccc(C2(O)CC2)cc1)N1CCC(O)(Cn2cnc3c(cnn3-c3ccccc3)c2=O)CC1 [Compound I-467] | – | 1 to 10 µM | –
60 | CN(C)C1CCN(c2cccc(-n3ncc4c(=O)n(CC5(O)CCN(C(=O)C6CC6)CC5)cnc43)c2)CC1 [Compound I-1209] | – | 0.2 to 1 µM | –
61 | O=C(c1ccn(C2CC2)n1)N1CCC(O)(Cn2cnc3c(cnn3-c3ccc(Cl)cc3)c2=O)CC1 [Compound I-1093] | 1 to 10 µM | – | –
62 | O=C(C1CC1)N1CCC(O)(Cn2cnc3c(cnn3-c3cccc(-c4cccc5[nH]ccc45)c3)c2=O)CC1 [Compound I-406] | – | 1 to 10 µM | –
63 | O=C(c1ccc(F)cc1)N1CCC(O)(Cn2cnc3c(cnn3-c3ccc(N4CCCc5cnccc54)cc3)c2=O)CC1 [Compound I-1729] | 1 to 10 µM | – | –
